Data published in paper PMC6946167, “Characterization of Aspergillus nidulans TRAPPs uncovers unprecedented similarities between fungi and metazoans and reveals the modular assembly of TRAPPII” (PLoS Genetics, 2019).

What was measured:
RAB1 (RabO) = target: T1, RAB1 (RabO) (Aspergillus nidulans, UniProt C8V3Z5); test: GDP/mant-GDP exchange, Trp-to-mant FRET ([…] nm), exponential fit; assay type: binding; conditions: 5 uM GDP-loaded GST-RAB1, 50 uM mant-GDP, 10 mM MgCl2, 10 mM KCl, 2 mM DTT, 50 mM Tris-HCl pH 7.5, 30 C; no GEF
T1 construct: gene ANIA_04281; GST fusion, expressed in E. coli, purified on glutathione-Sepharose 4B, GDP-loaded; GST not reported cut
T1 sequence (C8V3Z5 entry or part of it): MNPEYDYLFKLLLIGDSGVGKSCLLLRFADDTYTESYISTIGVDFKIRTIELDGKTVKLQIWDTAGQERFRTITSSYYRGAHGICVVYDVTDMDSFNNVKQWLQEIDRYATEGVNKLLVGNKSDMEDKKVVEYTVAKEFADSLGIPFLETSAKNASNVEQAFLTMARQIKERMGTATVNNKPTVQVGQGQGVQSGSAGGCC

[1] = target: TRAPPII from tca17Δ cells (Aspergillus nidulans); test: negative-stain electron microscopy; Trs120-S-purified complexes eluted from S-agarose with S-peptide, concentrated, stained with 2% uranyl acetate; single particle 2D classification

Nc1nc2c(ncn2[C@@H]2O[C@H](COP(=O)(O)OP(=O)(O)O)[C@@H](O)[C@H]2O)c(=O)[nH]1 [GDP]
koff (RAB1 (RabO)): Time courses of mant-GDP exchange for GDP were used to calculate the observed koff of GDP

TRAPPII from tca17Δ cells (complex)
percent of particles that are TRAPPII dimers [1]: 12%
